From patent US10717716B2, “1,3,4-oxadiazole derivative compounds as histone deacetylase 6 inhibitor, and the pharmaceutical composition comprising the same” (Chong Kun Dang Pharmaceutical Corp., priority 2015, dated 2020) come the findings set out here.

Structures are written as SMILES.

One experiment addresses T1, human recombinant HDAC6 (Homo sapiens, UniProt Q9UBN7).
T1 construct: purchased Calbiochem 382180
T1 sequence (Q9UBN7 1-1215): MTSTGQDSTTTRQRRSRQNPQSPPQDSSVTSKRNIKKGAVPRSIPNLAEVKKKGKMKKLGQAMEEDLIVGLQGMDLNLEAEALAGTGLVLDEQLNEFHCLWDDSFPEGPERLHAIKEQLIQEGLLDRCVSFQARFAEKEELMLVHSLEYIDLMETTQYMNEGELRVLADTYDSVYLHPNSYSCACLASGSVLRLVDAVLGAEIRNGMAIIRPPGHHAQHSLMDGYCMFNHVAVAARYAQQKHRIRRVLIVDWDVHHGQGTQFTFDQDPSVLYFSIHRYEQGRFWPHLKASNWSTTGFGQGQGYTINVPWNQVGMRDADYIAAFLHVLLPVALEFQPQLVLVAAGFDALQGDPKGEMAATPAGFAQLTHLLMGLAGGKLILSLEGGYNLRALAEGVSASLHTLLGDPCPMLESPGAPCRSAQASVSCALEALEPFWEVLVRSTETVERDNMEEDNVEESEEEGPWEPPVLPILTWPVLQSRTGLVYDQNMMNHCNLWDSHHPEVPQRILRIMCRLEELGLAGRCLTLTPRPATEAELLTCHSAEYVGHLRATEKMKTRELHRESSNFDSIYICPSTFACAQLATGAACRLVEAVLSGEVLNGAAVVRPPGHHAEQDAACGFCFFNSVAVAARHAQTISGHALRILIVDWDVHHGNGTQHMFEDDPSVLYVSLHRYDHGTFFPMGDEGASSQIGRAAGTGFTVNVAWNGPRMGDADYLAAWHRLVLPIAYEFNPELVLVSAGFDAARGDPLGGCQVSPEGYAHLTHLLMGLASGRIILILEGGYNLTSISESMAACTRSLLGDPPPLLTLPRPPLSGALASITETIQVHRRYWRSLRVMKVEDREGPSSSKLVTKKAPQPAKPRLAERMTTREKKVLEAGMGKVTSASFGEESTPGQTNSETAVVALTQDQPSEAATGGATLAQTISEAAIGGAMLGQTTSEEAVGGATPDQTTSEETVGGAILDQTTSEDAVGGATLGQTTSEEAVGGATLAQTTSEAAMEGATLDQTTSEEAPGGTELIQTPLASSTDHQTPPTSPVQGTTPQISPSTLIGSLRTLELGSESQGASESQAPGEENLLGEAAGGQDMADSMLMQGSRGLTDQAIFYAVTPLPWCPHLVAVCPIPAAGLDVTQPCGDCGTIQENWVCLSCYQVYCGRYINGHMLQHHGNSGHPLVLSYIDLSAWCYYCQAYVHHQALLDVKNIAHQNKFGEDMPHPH
The experiment is described as follows: HDAC6 enzyme activity inhibition assay (HDAC Fluorimetric Drug Discovery Kit). Type of experiment: biochemical. Conditions: for HDAC6 selectivity (fold): HDAC6 over HDAC1; for IC50: human recombinant HDAC6, same protocol as HDAC1, read-out: HDAC6. The essentials:
(§1)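 Fluorimetric deacetylase assay: 5-fold serial compound dilutions, 0.3 μg recombinant human enzyme (HDAC1 or HDAC6, same protocol), 10 μM Fluor de Lys-SIRT1 substrate, 60 min at 30 °C. Signal developed 30 min, measured at 360/460 nm; IC50 values derived.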

The next experiment concerns the target T2, human recombinant HDAC1 (Homo sapiens, UniProt Q13547).
T2 construct: purchased Enzo Life Science BML-SE456
The experiment is described as follows: HDAC1 enzyme activity inhibition assay (HDAC Fluorimetric Drug Discovery Kit). Type of experiment: biochemical. To be noted: human recombinant HDAC1, Fluor de Lys substrate 10 μM, 30° C. 60 minutes. The gist of the method:
as §1

T2 sequence (Q13547 whole entry): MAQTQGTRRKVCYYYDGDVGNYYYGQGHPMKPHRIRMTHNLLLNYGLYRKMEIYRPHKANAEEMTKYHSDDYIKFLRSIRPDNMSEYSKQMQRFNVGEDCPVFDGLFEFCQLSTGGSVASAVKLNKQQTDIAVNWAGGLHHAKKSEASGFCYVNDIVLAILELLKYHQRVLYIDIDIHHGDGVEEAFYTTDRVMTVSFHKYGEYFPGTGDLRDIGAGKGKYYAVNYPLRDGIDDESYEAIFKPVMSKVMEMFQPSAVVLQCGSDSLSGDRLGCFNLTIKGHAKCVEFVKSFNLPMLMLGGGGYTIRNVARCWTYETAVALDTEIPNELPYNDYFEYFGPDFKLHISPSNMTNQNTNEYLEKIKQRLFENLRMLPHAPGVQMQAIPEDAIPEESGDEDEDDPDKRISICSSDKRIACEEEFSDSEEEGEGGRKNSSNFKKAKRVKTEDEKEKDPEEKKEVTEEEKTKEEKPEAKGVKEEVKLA

For `O=C(N1CCOCC1)N(Cc1ccc(-c2nnc(C(F)F)o2)cn1)c1ccc(Cl)cc1` [Compound 21847, N-(4-chlorophenyl)-N-((5-(5-(difluoromethyl)-1,3,4-oxadiazol-2-yl)pyridin-2-yl)methyl) morpholine-4-carboxamide], on human recombinant HDAC6, the “HDAC6 selectivity (fold)” value is on record as 1811 fold and the IC50 is 0.039 µM. Further, on human recombinant HDAC1, the IC50 is 70.2 µM.
Regarding `O=C(N1CCOCC1)N(Cc1ccc(-c2nnc(C(F)(F)F)o2)cn1)c1ccc(Cl)cc1` [Compound 21848, N-(4-chlorophenyl)-N-((5-(5-(trifluoromethyl)-1,3,4-oxadiazol-2-yl)pyridin-2-yl)methyl) morpholine-4-carboxamide], the “HDAC6 selectivity (fold)” value at human recombinant HDAC6 is given as 161 fold. In addition, the IC50 at human recombinant HDAC6 was found to be 0.261 µM; on human recombinant HDAC1, 41.9 µM.
As to `O=C(N1CCOCC1)N(Cc1ccc(-c2nnc(C(F)(F)F)o2)cc1F)c1ccc(Cl)cc1` [Compound 21850, N-(4-chlorophenyl)-N-(2-fluoro-4-(5-(trifluoromethyl)-1,3,4-oxadiazol-2-yl)benzyl)morpholine-4-carboxamide], on human recombinant HDAC6, the “HDAC6 selectivity (fold)” value turned out to be 157 fold and the IC50 stood at 0.436 µM. Also, the IC50 on human recombinant HDAC1 was 68.6 µM.
The corresponding values for `O=C(N1CCOCC1)N(Cc1ccc(-c2nnc(C(F)(F)F)o2)cn1)c1cccc(Cl)c1` [Compound 21852, N-(3-chlorophenyl)-N-((5-(5-(trifluoromethyl)-1,3,4-oxadiazol-2-yl)pyridin-2-yl)methyl) morpholine-4-carboxamide] are 118 fold, 0.131 µM and 15.3 µM.
The corresponding values for `O=C(N1CCOCC1)N(Cc1ccc(-c2nnc(C(F)F)o2)cc1F)c1cccc(Cl)c1` [Compound 21853, N-(3-chlorophenyl)-N-(4-(5-(difluoromethyl)-1,3,4-oxadiazol-2-yl)-2-fluorobenzyl)morpholine-4-carboxamide] are 540 fold, 0.053 µM and 28.8 µM.
Consider `O=C(N1CCOCC1)N(Cc1ccc(-c2nnc(C(F)(F)F)o2)cc1F)c1cccc(Cl)c1` [Compound 21854, N-(3-chlorophenyl)-N-(2-fluoro-4-(5-(trifluoromethyl)-1,3,4-oxadiazol-2-yl)benzyl)morpholine-4-carboxamide], for which, on human recombinant HDAC6, the “HDAC6 selectivity (fold)” value was determined as 46 fold and the IC50 is 0.276 µM. Besides, the IC50 at human recombinant HDAC1 is 12.7 µM.
With `O=C(N1CCOCC1)N(Cc1ccc(-c2nnc(C(F)(F)F)o2)cn1)c1ccc(F)cc1F` [Compound 21857, N-(2,4-difluorophenyl)-N-((5-(5-(trifluoromethyl)-1,3,4-oxadiazol-2-yl)pyridin-2-yl)methyl)morpholine-4-carboxamide], on human recombinant HDAC6, the “HDAC6 selectivity (fold)” value is 182 fold and the IC50 stood at 0.131 µM. For the same compound, on human recombinant HDAC1, the IC50 stood at 23.9 µM.
As to `O=C(N1CCOCC1)N(Cc1ccc(-c2nnc(C(F)F)o2)cc1F)c1ccc(F)cc1F` [Compound 21858, N-(4-(5-(difluoromethyl)-1,3,4-oxadiazol-2-yl)-2-fluorobenzyl)-N-(2,4-difluorophenyl)morpholine-4-carboxamide], at human recombinant HDAC6, the “HDAC6 selectivity (fold)” value was 966 fold. Besides, the figures for the IC50 on human recombinant HDAC6 and on human recombinant HDAC1 were 0.038 µM and 37.1 µM, respectively.
The corresponding values for `O=C(N1CCOCC1)N(Cc1ccc(-c2nnc(C(F)(F)F)o2)cc1F)c1ccc(F)cc1F` [Compound 21859, N-(2,4-difluorophenyl)-N-(2-fluoro-4-(5-(trifluoromethyl)-1,3,4-oxadiazol-2-yl)benzyl)morpholine-4-carboxamide] are 177 fold, 0.133 µM and 23.5 µM.
Turning to `CCN1CCN(C(=O)N(Cc2ccc(-c3nnc(C(F)(F)F)o3)cc2)c2cccc(Cl)c2)CC1` [Compound 21860, N-(3-Chlorophenyl)-4-ethyl-N-(4-(5-(trifluoromethyl)-1,3,4-oxadiazol-2-yl)benzyl)piperazine-1-carboxamide], the “HDAC6 selectivity (fold)” value on human recombinant HDAC6 was determined as 82 fold. Moreover, the IC50 at human recombinant HDAC6 was determined as 0.22 µM; at human recombinant HDAC1, 18 µM.
The matching figures for `CCN1CCN(C(=O)N(Cc2ccc(-c3nnc(C(F)(F)F)o3)cc2F)c2cccc(Cl)c2)CC1` [Compound 21861, N-(3-Chlorophenyl)-4-ethyl-N-(2-fluoro-4-(5-(trifluoromethyl)-1,3,4-oxadiazol-2-yl)benzyl)piperazine-1-carboxamide]: 40 fold, 0.343 µM and 13.7 µM.
The corresponding values for `CCN1CCN(C(=O)N(Cc2ccc(-c3nnc(C(F)(F)F)o3)cc2)c2ccc(Cl)cc2)CC1` [Compound 21862, N-(4-Chlorophenyl)-4-ethyl-N-(4-(5-(trifluoromethyl)-1,3,4-oxadiazol-2-yl)benzyl)piperazine-1-carboxamide] are 71 fold, 0.472 µM and 33.7 µM.
The matching figures for `CCN1CCN(C(=O)N(Cc2ccc(-c3nnc(C(F)(F)F)o3)cc2F)c2ccc(Cl)cc2)CC1` [Compound 21863, N-(4-Chlorophenyl)-4-ethyl-N-(2-fluoro-4-(5-(trifluoromethyl)-1,3,4-oxadiazol-2-yl)benzyl)piperazine-1-carboxamide]: 65 fold, 0.4 µM and 25.8 µM.
Take `CCN1CCN(C(=O)N(Cc2ccc(-c3nnc(C(F)(F)F)o3)cn2)c2ccc(Cl)cc2)CC1` [Compound 21864, N-(4-Chlorophenyl)-4-ethyl-N-((5-(5-(trifluoromethyl)-1,3,4-oxadiazol-2-yl)pyridin-2-yl)methyl)piperazine-1-carboxamide]: on human recombinant HDAC6, the “HDAC6 selectivity (fold)” value is 190 fold and the IC50 worked out at 0.152 µM. Moreover, the IC50 on human recombinant HDAC1 came to 28.8 µM.
The matching figures for `CCN1CCN(C(=O)N(Cc2ccc(-c3nnc(C(F)(F)F)o3)cc2)c2cccc(F)c2)CC1` [Compound 21865, 4-Ethyl-N-(3-fluorophenyl)-N-(4-(5-(trifluoromethyl)-1,3,4-oxadiazol-2-yl)benzyl)piperazine-1-carboxamide]: 174 fold, 0.096 µM and 16.8 µM.
The corresponding values for `CCN1CCN(C(=O)N(Cc2ccc(-c3nnc(C(F)(F)F)o3)cc2F)c2cccc(F)c2)CC1` [Compound 21866, 4-Ethyl-N-(2-fluoro-4-(5-(trifluoromethyl)-1,3,4-oxadiazol-2-yl)benzyl)-N-(3-fluorophenyl)piperazine-1-carboxamide] are 174 fold, 0.137 µM and 23.9 µM.
As to `CCN1CCN(C(=O)N(Cc2ccc(-c3nnc(C(F)(F)F)o3)cn2)c2cccc(F)c2)CC1` [Compound 21867, 4-Ethyl-N-(3-fluorophenyl)-N-((5-(5-(trifluoromethyl)-1,3,4-oxadiazol-2-yl)pyridin-2-yl)methyl)piperazine-1-carboxamide], the “HDAC6 selectivity (fold)” value at human recombinant HDAC6 is recorded as 489 fold. Moreover, the IC50 at human recombinant HDAC6 was 0.073 µM; at human recombinant HDAC1 it was 35.9 µM.
For `CCN1CCN(C(=O)N(Cc2ccc(-c3nnc(C(F)(F)F)o3)cc2)c2ccc(F)cc2)CC1` [Compound 21868, 4-Ethyl-N-(4-fluorophenyl)-N-(4-(5-(trifluoromethyl)-1,3,4-oxadiazol-2-yl)benzyl)piperazine-1-carboxamide], the “HDAC6 selectivity (fold)” value on human recombinant HDAC6 stood at 172 fold. For the same compound, the IC50 on human recombinant HDAC6 turned out to be 0.16 µM; on human recombinant HDAC1, 27.5 µM.
The corresponding values for `CCN1CCN(C(=O)N(Cc2ccc(-c3nnc(C(F)(F)F)o3)cc2F)c2ccc(F)cc2)CC1` [Compound 21869, 4-Ethyl-N-(2-fluoro-4-(5-(trifluoromethyl)-1,3,4-oxadiazol-2-yl)benzyl)-N-(4-fluorophenyl)piperazine-1-carboxamide] are 137 fold, 0.138 µM and 18.9 µM.
